Data reported in patent US8765953B2, “Compounds and methods for the treatment of pain and other diseases” (Aquilus Pharmaceuticals, Inc., priority 2008, dated 2014).

What was measured:
[1] = In-vitro human microsomal stability; type: in vitro ADME; details: human microsomes, 1 microMolar compound, at T = 60 minutes
Procedure: Human and mouse microsomal stability was determined for select compounds following the method of Houston (Houston, J. B; Biochem. Pharmacol. 47, (1994),1469).
1 μM concentration of compound and separate human and mouse microsomes (0.3 mg/mL, BD bioscience) were used in the in-vitro assay. To ensure proper energy supply for microsomal degradation of compound, an energy regenerating system comprised of 100 mM potassium phosphate, 2 mM NADPH, 3 mM MgCl2, pH=7.4. and the microsomal protein is added to each sample and the resulting suspension is then incubated in duplicate for 60 min at 37° C. in a rotary shaker. A control is run for each test agent in duplicate omitting NADPH to detect NADPH-free degradation. At T=0 and T=60 min., an aliquot is removed from each experimental and control reaction and then mixed with an equal volume of ice-cold Stop Solution (consisting of 0.3% acetic acid in acetonitrile containing haloperidol and diclofenac as internal standards). […] The samples are then centrifuged to remove precipitated protein, and the supernatants are then analyzed by LC-MS/MS to determine the percentage of compound remaining. […] After separation on a C18 reverse phase HPLC column (Agilent, Waters, or equivalent) using an acetonitrile-water gradient system, peaks were analyzed by mass spectrometry (MS) using ESI ionization in MRM mode.

humans = details: cited from earlier work
[2] = cited from earlier work
[3] = tested on: spinal nerve ligation (SNL) mouse model; test: Intrathecal (i.t.) SNL-mouse model of neuropathic pain, von Frey mechanical allodynia; type: in vivo, FVB male mice
Description: To measure the neuropathic pain inhibiting affects of the MMP inhibitors of the present invention, the spinal nerve ligation (SNL) mouse model was run on a select number of compounds. This model which began with the work of Bennet and coworkers (Bennet, G. J. et al. Pain, 33, (1988), 87-107) and was optimized by Kim and Chung (Kim, S. H.; Chung, J. M. Pain, 50, (1992), 355-363) entails first, under magnification, the removal of one-third of the transverse process and then identifying and then dissecting free the L5 spinal nerve from the adjacent L4 spinal nerve in the mouse. The L5 spinal nerve is then tightly ligated using 6.0 silk suture. The nerve injury leads to hyperalgesia which manifests itself by enhanced responses to mechanical, heat and/or cooling stimuli. In this case, mechanical hyperalgesia is tested via Von Frey monofilaments in which filaments of varying thicknesses and bending force are individually applied to the plantar surface of the foot of the mouse. The threshold force necessary for paw withdrawal decreases dramatically after the nerve surgery. Potent pain inhibitors will reverse this affect resulting in greater force needing to be applied to cause the rodent paw to withdrawal.
Following preoperative baseline (Day −2) paw threshold measurement, FVB male mice were subjected to SNL injury (Day −1). The next day (Day 0) after SNL surgery, the animals were tested for post-operative baseline threshold measurements for mechanical allodynia; and the animals were then randomly assigned to one of 3 treatment groups (see Table 9). Over the course of the study, paw withdrawal threshold of these animals was measured in response to mechanical stimulation using the von Frey Monofilament Test.
To avoid systemic effects of the MMP inhibitors, the MMP inhibitors of the present invention were delivered into the cerebral spinal fluid (CSF) space around lumbosacral spinal cord via intrathecal (i.t.) administration, with the idea of targeting MMPs in the DRG, spinal cord, and spinal CSF. Intrathecal MMP inhibitor administration could then target not only spinal cord cells but also DRG cells. Each intrathecal (i.t.) injection was carried out according to the technique of Hylden and Wilcox (Hylden J L, Wilcox G L. Eur. J. Pharmacol., 67, (1980), 313-6) 5.2 mg of each of the MMP inhibitors were first dissolved in 140 microliters of DMSO and then put into 1260 microliters of 0.5% hydroxypropyl cellulose (HPC) in water to make a fine suspension composed of compound in 10% DMSO-0.5% hydroxypropyl cellulose. 10 microliters of the mixture was injected into the intrathecal space of male FVB mice (weighing 22-25 grams each and obtained from the Jackson Laboratories, Bar Harbor, Me.), by lumbar puncture in a volume of 10 μl/mouse using a Hamilton microsyringe via a 30 gauge needle inserted between lumbar vertebrae 5 and 6. In brief, each animal was held firmly by the pelvic girdle in one hand, while the needle was inserted into the tissue on the right side of the L5 or L6 spinous process. The needle was moved forward and slipped into the groove between the spinous process and transverse process and gently moved forward to the intervertebral space at ˜10° angle. As the needle was inserted (˜0.5 cm) within the vertebral column a tail flick was evident, and the solution was then injected.
Tactile Allodynia Test. Mechanical allodynia was measured using the calibrated von Frey filaments (Semmes-Weinstein monofilaments; Stoelting, Wood Dale, Ill., U.S.A.). The plantar surface of the left injured paw of each animal was tested as described by Chaplan et al. (Journal of Neuroscience Methods, 53, (1994), 55-63). The Fifty percent paw withdrawal threshold response was determined by sequentially increasing or decreasing the stimulus strength according to the “up-down method” of Dixon (Annual Review Pharmacology Toxicology, 20, (1980), 441-462). […]

## Cc1ccc(C#Cc2ccc(S(=O)(=O)N[C@H](Cc3c[nH]c4ccccc34)C(=O)O)s2)cc1 [Compound 5, (R)-3-(1H-Indol-3-yl)-2-(5-p-tolylethynyl-thiophene-2-sulfonylamino)-propionic acid]
[1]; with NADPH
  Mean Remaining Parent with NADPH (%): 86%
[1]; without NADPH (control)
  Mean Remaining Parent without NADPH (%): 89%
humans; humans (S-3304: animals or man)
  Musculoskeletal toxicities: no evidence of musculoskeletal toxicities
humans; humans
  Adverse events in humans: headaches, somnolence, vomiting, nausea and gastrointestinal pain
[2]
  Metabolites found in human blood: formation of several hydroxylated metabolites
[3]; i.t. 10 μl/mouse daily day 1-6
  Paw withdrawal threshold, mean, Day 5: 0.079 grams
  Paw withdrawal threshold, mean, Day 7: 0.190 grams
[3]; i.t. 10 μl/mouse daily day 1-6, testing 2 hr after first i.t. injection
  Paw withdrawal threshold, mean, Day 1: 0.098 grams
[3]; i.t. study, post operative injury baseline, before treatment
  Paw withdrawal threshold, mean, Day 0 Postoperative Baseline: 0.050 grams
[3]; i.t. study, testing prior to SNL injury, before treatment
  Paw withdrawal threshold, mean, Day(-2) Pre-operative Baseline: 1.265 grams
